Laboratory results: PMC5641551, “Chemical Proteomics for Target Discovery of Head-to-Tail Cyclized Mini-Proteins” (Frontiers in Chemistry, 2017)
No end group written: not given here.

System: 14-3-3 proteins in living Jurkat cells
Test: photo-affinity pull down on living Jurkat cells with competitor
Assay type: binding, human
Settings: 2 h incubation with bait, [T20K]kB1 competitor at 60-fold molar excess, UV irradiation
Protocol: Biotin-LC-LC-labeled (ThermoFisher) peptides (1–5 nmoles) with or without (non-biotinylated) competitor ([…]) for 2 h at 4°C in the presence of protease inhibitors. UV-activation of photo-crosslinking moiety benzophenone was induced by irradiation at 360 nm on ice for 15 min (Stratalinker, Stratagene, CA, United States). Streptavidin-coated magnetic nanobeads 2–4 mg (1–3-fold excess of binding capacity to applied biotin-bait) facilitated the precipitation (Hyglos, Bernried, Germany). The binding could proceed overnight at 4°C. The supernatants were removed and the beads were washed several times, unless stated otherwise and used for SDS-PAGE, unless stated otherwise. For cyclotide experiments the following peptides were used: biotinylated [T20K]kB1 or [T20K,W23Bpa]kB1 as bait and [T20K]kB1, [T20K,W23Bpa]kB1, or R18 ([…]; Sigma Aldrich), a 14-3-3 family specific peptide inhibitor, as competitors. Generally, beads were washed with lysis buffer containing 1% (v/v) Triton-X100 and 0.2% SDS (w/v) and protease inhibitor cocktail for 3 h followed by wash with 0.12 mM phosphate buffered high saline (PBhS) pH 7.4, 1 M NaCl and 12 mM KCl, 1 mM EDTA for 2 h. Lastly, the beads were washed three times for 5 min with lysis buffer. […] Peptide-protein co-precipitations of 14-3-3 proteins and cyclotides were analyzed with GST-tagged 14-3-3β protein (0.25 μg; EnzoLifeSciences, New York, United States). […]

## CGETCVGGTCNTPGCKCSWPVCTRNGLPV (also: bicyclic or more (positions not given here)) [[T20K]kB1, synthetic cyclotide drug candidate, Thr20 to Lys mutant of kalata B1]
  retention of labeled 14-3-3 proteins on affinity beads in presence of competitor: competitively reduced
